In ChEMBL document CHEMBL5143617 (Eur J Med Chem, 2022):
Converted amounts (≈) assume the structure as drawn. The source made the active and inactive calls. No cut-off for these calls is given here.

How the values were obtained:
[1] = Ratio of drug concentration in striatum to plasma in mouse at 0.625 mg/kg, ip by LC/ESI-MS/MS analysis; format: ADME, organism-based; settings: striatum and plasma
[2] = Permeability of the compound across apical to basolateral side in human Caco-2 cells at pH 7.4; format: ADME, cell-based; settings: Caco-2, pH 7.4, read-out: Papp
[3] = Aqueous solubility of compound in simulated intestinal fluid by UV absorbance based analysis; format: physicochemical
[4] = Permeability of the compound across apical to basolateral side in human Caco-2 cells at pH 6.5; format: ADME, cell-based; settings: Caco-2, pH 6.5, read-out: Papp
[5] = target: T1, cAMP and cAMP-inhibited cGMP 3',5'-cyclic phosphodiesterase 10A (Homo sapiens, UniProt Q9Y233); assay: Inhibition of PDE10A (unknown origin) preincubated for 20 mins followed by substrate addition and measured after 1 hr by PEDlight AMP detection reagent based luminescence assay
[6] = Cmax in mouse striatum at 0.625 mg/kg, ip by LC/ESI-MS/MS analysis; format: ADME, organism-based; design: dose 0.625 mg/kg, route ip
[7] = Cmax in mouse hippocampus at 0.625 mg/kg, ip by LC/ESI-MS/MS analysis; format: ADME, organism-based; design: dose 0.625 mg/kg, route ip
[8] = AUC(0 to t) in mouse frontal cortex at 0.625 mg/kg, ip by LC/ESI-MS/MS analysis; format: ADME, organism-based; design: dose 0.625 mg/kg, route ip
[9] = Apparent volume of distribution in mouse plasma at 0.625 mg/kg, ip measured up to 480 mins by LC/ESI-MS/MS analysis; format: ADME, organism-based
[10] = Efflux ratio of apparent permeability across basolateral to apical membrane to apical to basolateral membrane in human Caco-2 cells; format: ADME, cell-based
Mus musculus = assay: Antipsychotic activity in CD-1 mouse assessed as inhibition of amphetamine-stimulated locomotor activity at 5 mg/kg, ip administered 30 mins prior to amphetamine stimulation and measured after 30 mins; format: functional, organism-based; settings: time 60.0 min
[11] = Tmax in mouse hippocampus at 0.625 mg/kg, ip by LC/ESI-MS/MS analysis; format: ADME, organism-based
[12] = Ratio of drug concentration in frontal cortex to plasma in mouse at 0.625 mg/kg, ip by LC/ESI-MS/MS analysis; format: ADME, organism-based; settings: frontal cortex and plasma
[13] = target: T1, cAMP and cAMP-inhibited cGMP 3',5'-cyclic phosphodiesterase 10A; assay: Inhibition of PDE10A (unknown origin) at 10 uM preincubated for 20 mins followed by substrate addition and measured after 1 hr by PEDlight AMP detection reagent based luminescence assay relative to control; settings: time 80.0 min
[14] = target: T2, 5-hydroxytryptamine receptor 1A (Homo sapiens, UniProt P08908); assay: Agonist activity at human 5-HT1A receptor expressed in U2OS cells assessed as beta-arrestin recruitment incubated for 5 hrs by Tango assay; format: functional, cell-based
T2 sequence (P08908 whole entry): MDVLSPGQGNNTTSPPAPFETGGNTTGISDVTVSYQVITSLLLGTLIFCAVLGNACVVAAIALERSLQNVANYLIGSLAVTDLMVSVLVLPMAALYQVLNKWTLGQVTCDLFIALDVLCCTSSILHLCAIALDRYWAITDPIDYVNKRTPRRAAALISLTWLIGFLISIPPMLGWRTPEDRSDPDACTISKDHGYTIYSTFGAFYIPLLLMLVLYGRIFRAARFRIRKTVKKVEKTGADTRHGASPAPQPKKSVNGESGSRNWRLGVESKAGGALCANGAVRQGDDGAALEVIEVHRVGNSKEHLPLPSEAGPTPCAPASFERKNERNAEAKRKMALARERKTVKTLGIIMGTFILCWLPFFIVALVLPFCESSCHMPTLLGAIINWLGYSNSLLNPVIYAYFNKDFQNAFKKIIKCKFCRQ

[15] = target: T2, 5-hydroxytryptamine receptor 1A; assay: Displacement of [3H]-[…] from human 5-HT1A receptor expressed in CHO-K1 cells membrane by scintillation counter analysis; format: cell membranes
[16] = target: 5-hydroxytryptamine receptor 2A (Homo sapiens, UniProt P28223); assay: Binding affinity to 5HT-2A receptor (unknown origin)
[17] = target: T2, 5-hydroxytryptamine receptor 1A; assay: Agonist activity at human 5-HT1A receptor expressed in CHO-K1 cells assessed as stimulation of ERK1/2 phosphorylation incubated for 15 mins by Alpha LISA assay; format: functional, cell-based
Erythrocyte = assay: Hemolytic activity in human erythrocytes at 10^-6 to 10^-5 M after 30 mins by spectrophotometry; format: toxicity, cell-based; settings: 0.5 h, dose lower 1e-06 µmol/L, dose upper 1e-05 µmol/L

T1 sequence (Q9Y233 whole entry): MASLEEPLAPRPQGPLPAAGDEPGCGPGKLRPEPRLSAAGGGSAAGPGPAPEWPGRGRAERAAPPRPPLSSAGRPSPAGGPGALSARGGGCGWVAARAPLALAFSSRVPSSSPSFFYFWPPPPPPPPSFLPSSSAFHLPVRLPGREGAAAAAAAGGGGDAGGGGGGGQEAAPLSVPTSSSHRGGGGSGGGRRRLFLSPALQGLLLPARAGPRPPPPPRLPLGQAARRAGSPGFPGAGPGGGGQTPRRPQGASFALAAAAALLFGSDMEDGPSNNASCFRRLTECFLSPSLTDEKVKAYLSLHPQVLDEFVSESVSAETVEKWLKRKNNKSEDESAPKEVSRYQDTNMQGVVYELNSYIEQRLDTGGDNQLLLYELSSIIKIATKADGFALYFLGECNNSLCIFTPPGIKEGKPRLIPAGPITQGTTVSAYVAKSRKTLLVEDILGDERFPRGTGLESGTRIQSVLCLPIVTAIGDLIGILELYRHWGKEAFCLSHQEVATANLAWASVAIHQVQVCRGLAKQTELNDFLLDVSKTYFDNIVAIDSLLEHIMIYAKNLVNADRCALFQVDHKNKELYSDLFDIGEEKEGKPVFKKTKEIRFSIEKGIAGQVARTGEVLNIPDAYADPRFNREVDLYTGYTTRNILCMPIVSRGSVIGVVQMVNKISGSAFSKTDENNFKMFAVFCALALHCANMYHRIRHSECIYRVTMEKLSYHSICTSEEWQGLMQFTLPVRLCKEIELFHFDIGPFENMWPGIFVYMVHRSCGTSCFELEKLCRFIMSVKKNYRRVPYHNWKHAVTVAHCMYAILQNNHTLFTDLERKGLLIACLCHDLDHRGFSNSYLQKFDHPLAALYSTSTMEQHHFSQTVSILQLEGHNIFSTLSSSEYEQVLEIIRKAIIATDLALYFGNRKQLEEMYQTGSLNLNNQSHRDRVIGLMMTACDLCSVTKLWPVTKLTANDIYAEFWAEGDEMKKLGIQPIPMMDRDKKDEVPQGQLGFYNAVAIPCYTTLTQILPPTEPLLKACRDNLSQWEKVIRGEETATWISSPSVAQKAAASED
Sequence of 5-hydroxytryptamine receptor 2A (P28223 whole entry): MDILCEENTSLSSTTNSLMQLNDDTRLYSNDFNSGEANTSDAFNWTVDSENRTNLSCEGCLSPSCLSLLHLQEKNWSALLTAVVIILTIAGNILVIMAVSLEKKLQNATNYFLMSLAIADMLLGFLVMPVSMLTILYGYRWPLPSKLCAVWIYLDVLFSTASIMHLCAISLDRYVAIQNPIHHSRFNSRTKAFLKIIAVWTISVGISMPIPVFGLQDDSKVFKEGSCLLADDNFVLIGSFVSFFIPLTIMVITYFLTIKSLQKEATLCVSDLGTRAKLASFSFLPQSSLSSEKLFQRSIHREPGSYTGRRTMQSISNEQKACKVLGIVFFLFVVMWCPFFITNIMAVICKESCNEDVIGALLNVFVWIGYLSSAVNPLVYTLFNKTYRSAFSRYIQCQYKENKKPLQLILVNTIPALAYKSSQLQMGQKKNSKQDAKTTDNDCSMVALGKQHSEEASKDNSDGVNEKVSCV

Kp [1]: 87.4
Papp A→B [2]: 0.05 ×10⁻⁶ cm/s
solubility [3]: 181 µM (≈ 84.7 µg/mL)
Papp A→B [4]: 0.26 ×10⁻⁶ cm/s
IC50 [5]: 1700 nM
Cmax [6]: 317 ng/mL
Cmax [7]: 330 ng/mL
AUC(0-t) [8]: 1820 ng·h/mL
Vd/F [9]: 0.272 L/kg
efflux ratio [10]: 0.19
Tmax [11]: 30 min
Kp [12]: 149
inhibition [13]: 21%
EC50 [14]: 12 µM
Ki [15]: 363 nM
Ki [16]: > 1000 nM
EC50 [17]: 4.79 µM
Structure (SMILES): COc1cc2ncnc(N3CCC(CN4CCN(c5ccc(Cl)cc5)CC4)C3)c2cc1OC (centres undefined)
Activity (Mus musculus): Active
Activity (Erythrocyte): Non-Toxic
